Laboratory results from ChEMBL document CHEMBL1133971, “EDTA bis-(ethyl phenylalaninate): a novel transition metal-ion chelating hydroxyl radical scavenger with a potential anti-inflammatory role” (Bioorg Med Chem Lett, 2001).

Key:
[1] = Antioxidant efficacy as assessed by the deoxyribose assay at a concentration of 0.104 mM
[2] = Antioxidant efficacy as assessed by the deoxyribose assay at a concentration of 1.040 mM
[3] = Antioxidant efficacy as assessed by the deoxyribose assay at a concentration of 5.2 mM
[4] = Antioxidant efficacy as assessed by the deoxyribose assay in presence of EDTA (0.104 mM) and phenylalanine (0.208 mM)

inhibition [1]: 20%
inhibition [2]: 42%
inhibition [3]: 51%
inhibition [4]: 2%
SMILES: CCOC(=O)C(Cc1ccccc1)NC(=O)CN(CCN(CC(=O)O)CC(=O)NC(Cc1ccccc1)C(=O)OCC)CC(=O)O (centres undefined)
